Measurements taken from patent EP1366765A1, “Use of matrix metalloproteinase inhibitors for treating neurological disorders and promoting wound healing” (priority 1996, dated 1998).
Where a name gives a salt, the structure may show the parent alone. Where a SMILES comes first, the peptide text is derived from it. The star is where a group is joined. Hydrocinnamoyl = O=C(CCc1ccccc1)*; Tfa = O=C(C(F)(F)F)*

Assays:
MMP-1 = target: T1, MMP-1 (Homo sapiens, UniProt P03956); conditions: cited from earlier work; for IC50: IA = inactive
T1 sequence (P03956 100-469): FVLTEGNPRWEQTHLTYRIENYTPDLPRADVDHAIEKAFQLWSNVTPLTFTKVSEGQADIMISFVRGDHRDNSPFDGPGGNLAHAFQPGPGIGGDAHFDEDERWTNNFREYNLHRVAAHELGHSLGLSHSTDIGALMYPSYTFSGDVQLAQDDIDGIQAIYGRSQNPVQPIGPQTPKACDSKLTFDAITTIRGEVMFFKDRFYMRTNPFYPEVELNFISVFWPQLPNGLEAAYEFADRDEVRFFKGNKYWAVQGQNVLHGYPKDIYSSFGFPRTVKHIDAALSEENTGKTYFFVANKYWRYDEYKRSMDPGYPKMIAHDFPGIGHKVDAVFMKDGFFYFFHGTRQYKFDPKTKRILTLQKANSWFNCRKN

MMP-8 = MMP-8 (Homo sapiens, UniProt P22894); conditions: cited from earlier work
MMP-2 [1] = system: MMP-2
MMP-3 = MMP-3 (Homo sapiens, UniProt P08254); conditions: cited from earlier work
MMP-2 [2] = conditions: cited from earlier work
MMP-13 = MMP-13 (Homo sapiens, UniProt P45452); conditions: cited from earlier work
MMP-9 = MMP-9 (Homo sapiens, UniProt P14780); conditions: cited from earlier work
stromelysin = conditions: dosed orally at 30 mg/kg in rabbits injected with stromelysin; cited from earlier work
[3] = cited from earlier work; for activity in the guinea pig model of osteoarthritis (in words): in vivo; for inhibiting femoral lesions: guinea pig model of osteoarthritis
[4] = in vivo; cited from earlier work
[5] = in vivo; cited from earlier work; remark: listed apart in the source
MMPs = conditions: cited from earlier work
[6] = from MBP-sensitized splenocytes; cited from earlier work

Chain of MMP-9 (P14780 94-707, species assumed): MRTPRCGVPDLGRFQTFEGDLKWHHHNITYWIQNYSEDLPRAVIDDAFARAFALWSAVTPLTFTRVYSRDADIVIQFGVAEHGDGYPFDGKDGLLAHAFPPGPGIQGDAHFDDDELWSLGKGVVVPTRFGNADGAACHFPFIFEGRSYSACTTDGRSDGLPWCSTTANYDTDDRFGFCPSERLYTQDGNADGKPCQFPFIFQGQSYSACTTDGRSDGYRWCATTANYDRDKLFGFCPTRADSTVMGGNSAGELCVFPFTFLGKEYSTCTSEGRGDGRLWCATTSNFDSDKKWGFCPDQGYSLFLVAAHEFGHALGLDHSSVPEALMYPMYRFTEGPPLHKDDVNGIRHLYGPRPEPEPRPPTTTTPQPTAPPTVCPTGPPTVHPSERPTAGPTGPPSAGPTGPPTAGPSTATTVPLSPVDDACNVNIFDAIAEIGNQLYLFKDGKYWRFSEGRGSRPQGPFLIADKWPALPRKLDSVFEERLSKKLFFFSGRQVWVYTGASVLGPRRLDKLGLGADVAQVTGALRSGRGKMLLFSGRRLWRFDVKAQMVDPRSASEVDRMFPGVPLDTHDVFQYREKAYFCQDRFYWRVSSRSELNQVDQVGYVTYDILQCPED
Chain of MMP-3 (P08254 100-477, species assumed): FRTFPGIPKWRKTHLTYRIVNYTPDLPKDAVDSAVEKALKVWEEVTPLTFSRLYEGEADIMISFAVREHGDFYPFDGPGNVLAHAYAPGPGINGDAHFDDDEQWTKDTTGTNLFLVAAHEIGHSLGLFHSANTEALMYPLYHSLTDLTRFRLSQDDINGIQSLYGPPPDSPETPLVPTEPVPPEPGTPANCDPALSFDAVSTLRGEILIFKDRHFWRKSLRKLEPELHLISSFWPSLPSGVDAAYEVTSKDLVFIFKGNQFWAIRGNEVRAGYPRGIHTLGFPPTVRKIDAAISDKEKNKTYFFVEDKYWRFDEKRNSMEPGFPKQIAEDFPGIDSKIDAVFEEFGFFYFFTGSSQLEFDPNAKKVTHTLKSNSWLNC
Chain of MMP-8 (P22894 101-467, species assumed): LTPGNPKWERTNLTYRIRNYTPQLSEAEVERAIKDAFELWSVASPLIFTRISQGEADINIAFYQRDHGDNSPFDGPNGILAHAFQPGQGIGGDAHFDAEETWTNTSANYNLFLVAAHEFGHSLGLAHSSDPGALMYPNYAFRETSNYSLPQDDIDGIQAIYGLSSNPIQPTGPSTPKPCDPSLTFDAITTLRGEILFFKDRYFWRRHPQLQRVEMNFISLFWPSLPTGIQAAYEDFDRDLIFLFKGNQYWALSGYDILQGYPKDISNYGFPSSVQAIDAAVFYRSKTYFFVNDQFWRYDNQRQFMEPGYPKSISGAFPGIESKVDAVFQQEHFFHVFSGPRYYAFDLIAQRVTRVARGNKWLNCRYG

Structure (SMILES) | IC50 (MMP-1) | IC50 (MMP-3) | IC50 (MMP-2 [2]) | other results
CNC(=O)[C@H](Cc1ccccc1)NC(=O)[C@H](CCCCO)CC(=O)NO [Compound 5] | 64 nM |  |  | IC50 (MMP-8): 7 nM
CCCNC(=O)CCC[C@H](CC(=O)NO)C(=O)N[C@@H](Cc1ccccc1)C(=O)NC [Compound 6] | 5100 nM |  |  | IC50 (MMP-8): 2 nM
CNC(=O)[C@H](Cc1ccccc1)NC(=O)[C@H](CCCC(=O)NCCc1ccccc1)CC(=O)NO [Compound 7] | 1300 nM |  |  | IC50 (MMP-8): 32 nM
CNC(=O)[C@H](Cc1ccccc1)NC(=O)[C@H](CCCOCc1ccccc1)CC(=O)NO [Compound 8] | 2270 nM |  |  | 
CCCCCCCCCCCC[C@H](CC(=O)O)C(=O)N[C@@H](Cc1ccccc1)C(=O)NC [Compound 11] |  |  |  | MMP-1 % @ 100 µM (MMP-1; @ 100 µM): 30% @ 100 µM
O=C(C[C@@H](CCCc1ccccc1)C(=O)N[C@@H](CC1CCCCC1)C(=O)NCCc1ccccc1)NO [Compound 17] | 203 nM | 8.3 nM |  | selectivity for MMP-2 over MMP-1 (MMP-2 [1]): 10,000 fold; selectivity for MMP-2 over MMP-3 (MMP-2 [1]): 100 fold
O=C(C[C@@H](CCCc1ccc(Cl)cc1)C(=O)N[C@@H](CC1CCCCC1)C(=O)NCCNS(=O)(=O)N1CCOCC1)NO [Compound 18] | 385 nM |  | < 0.01 nM | inhibition of MMP-13 (in words) (MMP-13): potently inhibits; IC50 (MMP-9): 0.016 nM
Cc1ccc(CCC[C@H](CC(=O)O)C(=O)N[C@@H](CC2CCCCC2)C(=O)NCCc2ccccc2)cc1 [Compound 19] | 22000 nM | 470 nM | 1 nM | 
CCCCCCCCC(NC(C)C(=O)O)C(=O)NC(CC(C)C)C(=O)Nc1ccccc1 (stereo not drawn) [Compound 24] | > 10000 nM | 570 nM | 340 nM | 
CC(C)CC(NC(=O)C(CCc1ccccc1)NC(CCCCN1C(=O)c2ccccc2C1=O)C(=O)O)C(=O)Nc1ccccc1 (stereo not drawn) [Compound 27] | 720 nM | 8 nM | 86 nM | 
CNC(=O)[C@H](Cc1ccccc1)NC(=O)[C@H](CC(C)C)N[C@@H](CCN1C(=O)c2cc3ccccc3cc2C1=O)C(=O)O [Compound 28] | 20 nM | 91 nM |  | IC50 (MMP-9): 5 nM
CNC(=O)[C@H](Cc1ccccc1)NC(=O)[C@H](CC(C)C)N[C@@H](CCN1C(=O)c2cc3ccccc3c(OC)c2C1=O)C(=O)O [Compound 29] | 54 nM | 1400 nM |  | IC50 (MMP-9): 7 nM
CC(C)CC(NC(CCN1C(=O)c2cc3ccccc3cc2C1=O)C(=O)O)C(=O)NCCc1ccccc1 (stereo not drawn) [Compound 30] | 160 nM |  | > 10000 nM | IC50 (MMP-9): 35 nM
CC(C)C[C@H](N[C@@H](CCN1C(=O)c2cc3ccccc3cc2C1=O)C(=O)O)C(=O)NCc1ccc(C(=O)O)cc1 [Compound 31] | 56 nM |  | 178 nM | IC50 (MMP-9): 74 nM
CCCc1ccc(CCC(CC(CCCCN2C(=O)c3ccccc3C2=O)C(=O)O)C(=O)NC(CC(C)C)C(=O)Nc2ccccc2)cc1 (stereo not drawn) [Compound 32] | > 10000 nM | 0.036 nM | 5.7 nM | 
NC(=O)C(Cc1ccccc1)NC(=O)C(CS)NC(=O)C(F)(F)F (stereo not drawn) [Compound 33] (Tfa-Cys-Phe-NH2; configuration not given here) | 40 nM |  |  | 
CC(=O)NC(CS)C(=O)NC(Cc1ccccc1)C(N)=O (stereo not drawn) [Compound 34] (Ac-Cys-Phe-NH2; configuration not given here) | > 100000 nM |  |  | inhibition of MMP-1 (in words) (MMP-1): did not inhibit
NC(=O)C(Cc1ccccc1)NC(=O)C(CS)NC(=O)CCc1ccccc1 (stereo not drawn) [Compound 35] (Hydrocinnamoyl-Cys-Phe-NH2; configuration not given here) | 3500 nM |  |  | IC50 (MMP-8): 38 nM
Cc1ccc(CCCC(CP(=O)(O)O)C(=O)NC(CC2CCCCC2)C(=O)NCCc2ccccc2)cc1 (stereo not drawn) [Compound 37] | 17000 nM | 277 nM | 2.5 nM | 
COc1ccc(S(=O)(=O)N(Cc2cccnc2)[C@@H](C(=O)NO)C(C)C)cc1 [Compound 40] |  |  |  | proteoglycan break down (stromelysin): blocks proteoglycan break down; activity in the guinea pig model of osteoarthritis (in words) [3]: effective
O=C(CC(CCc1ccccc1)C(=O)O)c1ccc(-c2ccc(OCc3ccccc3)cc2)cc1 (stereo not drawn) [Compound 43] |  | 17 nM | 14 nM | inhibiting femoral lesions [3]: 37.8%; activity in the guinea pig model of osteoarthritis (in words) [3]: active; IC50 (MMP-9): 3200 nM
O=C(CC(CCN1C(=O)c2ccccc2C1=O)C(=O)O)c1ccc(-c2ccc(OCc3ccccc3)cc2)cc1 (stereo not drawn) [Compound 44] |  | 5.7 nM | 0.91 nM | antimetastatic effect, spontaneous metastasis model [4]: antimetastatic; antimetastatic effect, tail vein metastasis model [5]: antimetastatic; inhibiting femoral lesions [3]: 53%; activity in the guinea pig model of osteoarthritis (in words) [3]: active; IC50 (MMP-9): 1.5 nM
CO[C@H]1[C@H](O[C@@H]2c3c(cc4c(c3O)C(=O)c3c(O)cccc3C4=O)C(=O)[C@@](C)(O)[C@H]2OC)O[C@@H](C)[C@H](O)[C@H]1O [Compound 46, aranciamycin] |  |  |  | inhibition of MMPs (in words) (MMPs): weak inhibitors
COC(=O)c1cccc2c1C(=O)c1c(C(=O)OC)cc(C(=O)O)cc1C2=O [Compound 48] |  |  |  | inhibition of MMP-1 (in words) (MMP-1): MMP-1 inhibitors
CC(=O)NC1C(O)CC(Cc2cc3ccc(=O)oc3cc2OC(=O)N(C)C)C(O)C1O (stereo not drawn) [Compound 49] |  |  |  | inhibition of MMP-1 (in words) (MMP-1): weak inhibitors
CNC(=O)[C@@H](NC(=O)[C@@H](CC(=O)NO)CC(C)C)C(C)(C)C [RO 31-9790] |  |  |  | protection in adoptively transferred EAE [6]: protect
